How the values were obtained:
JAK1 (h) = target: T1, JAK1 (h) (Homo sapiens, UniProt P23458); assay: JAK1 kinase assay; type: biochemical
T1 construct: purchased Millipore UK Ltd (assays run there as a service)
Procedure: (§1) Kinase assays can be performed by measurement of incorporation of γ-^33P ATP into immobilized myelin basic protein (MBP). High binding white 384 well plates (Greiner) are coated with MBP (Sigma #M-1891) by incubation of 60 μL/well of 20 μg/mL MBP in Tris-buffered saline (TBS; 50 mM Tris pH 8.0, 138 mM NaCl, 2.7 mM KCl) for 24 h at 4° C. Plates are washed 3× with 100 μL TBS. Kinase reactions are carried out in a total volume of 34 μL in kinase buffer (5 mM Hepes pH 7.6, 15 mM NaCl, 0.01% bovine gamma globulin (Sigma #I-5506), 10 mM MgCl2, 1 mM DTT, 0.02% TritonX-100). Compound dilutions are performed in DMSO and added to assay wells to a final DMSO concentration of 1%. Each data point is measured in duplicate, and at least two duplicate assays are performed for each individual compound determination. Enzyme is added to final concentrations of 10 nM or 20 nM, for example. A mixture of unlabeled ATP and γ-^33P ATP is added to start the reaction (2×10^6 cpm of γ-^33P ATP per well (3000 Ci/mmole) and 10 μM unlabeled ATP, typically. The reactions are carried out for 1 h at room temperature with shaking Plates are washed 7× with TBS, followed by the addition of 50 μL/well scintillation fluid (Wallac). Plates are read using a Wallac Trilux counter. This is only one format of such assays; various other formats are possible, as known to one skilled in the art.
The above assay procedure can be used to determine the IC50 for inhibition and/or the inhibition constant, Ki. The IC50 is defined as the concentration of compound required to reduce the enzyme activity by 50% under the condition of the assay. The IC50 value is estimated by preparing a 10 point curve using a ½ log dilution series (for example, a typical curve may be prepared using the following compound concentrations: 3 μM, 1 μM, 0.3 μM, 0.1 μM, 0.03 μM, 0.01 μM, 0.003 μM, 0.001 μM, 0.0003 μM and 0 μM).
JAK1 (h) is incubated with 20 mM Tris/HCl pH 7.5, 0.2 mM EDTA, 500 μM […], 10 mM MgAcetate and [γ-^33P-ATP] (specific activity approx. 500 cpm/pmol, concentration as required).
The kinase assays described herein were performed at Millipore UK Ltd, Dundee Technology Park, Dundee DD2 1SW, UK.

FLT3 (h) = target: T2, FLT3 (h) (Homo sapiens, UniProt P36888); assay: FLT3 kinase assay; type: biochemical
T2 construct: purchased Millipore UK Ltd (assays run there as a service)
T2 sequence (P36888 27-993): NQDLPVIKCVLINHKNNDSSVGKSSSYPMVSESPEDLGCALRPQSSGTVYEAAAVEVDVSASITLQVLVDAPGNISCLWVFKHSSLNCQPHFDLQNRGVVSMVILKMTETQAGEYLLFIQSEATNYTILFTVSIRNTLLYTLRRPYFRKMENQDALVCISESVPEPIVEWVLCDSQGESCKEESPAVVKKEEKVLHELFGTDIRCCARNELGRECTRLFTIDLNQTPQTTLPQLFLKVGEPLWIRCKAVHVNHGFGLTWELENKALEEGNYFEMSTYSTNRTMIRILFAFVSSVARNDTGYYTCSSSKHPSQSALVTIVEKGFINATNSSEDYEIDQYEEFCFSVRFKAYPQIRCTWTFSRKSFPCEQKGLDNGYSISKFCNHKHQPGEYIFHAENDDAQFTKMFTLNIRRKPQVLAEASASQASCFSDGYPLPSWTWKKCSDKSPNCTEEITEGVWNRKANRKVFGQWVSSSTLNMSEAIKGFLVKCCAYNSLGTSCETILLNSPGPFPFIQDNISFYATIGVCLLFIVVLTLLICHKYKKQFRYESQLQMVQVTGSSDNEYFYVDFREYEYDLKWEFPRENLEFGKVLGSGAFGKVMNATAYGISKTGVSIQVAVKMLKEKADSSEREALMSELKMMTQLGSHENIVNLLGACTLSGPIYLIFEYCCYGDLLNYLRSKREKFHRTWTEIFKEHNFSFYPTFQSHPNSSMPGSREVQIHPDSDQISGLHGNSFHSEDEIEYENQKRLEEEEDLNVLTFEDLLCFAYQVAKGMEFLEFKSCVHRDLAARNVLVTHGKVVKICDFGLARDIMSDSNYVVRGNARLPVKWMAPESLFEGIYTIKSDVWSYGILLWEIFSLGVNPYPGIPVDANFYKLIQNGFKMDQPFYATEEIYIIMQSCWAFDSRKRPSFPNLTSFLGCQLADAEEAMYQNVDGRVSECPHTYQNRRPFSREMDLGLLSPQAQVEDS
Procedure: as §1, with “art. […]” for “art.”

T1 sequence (P23458 whole entry): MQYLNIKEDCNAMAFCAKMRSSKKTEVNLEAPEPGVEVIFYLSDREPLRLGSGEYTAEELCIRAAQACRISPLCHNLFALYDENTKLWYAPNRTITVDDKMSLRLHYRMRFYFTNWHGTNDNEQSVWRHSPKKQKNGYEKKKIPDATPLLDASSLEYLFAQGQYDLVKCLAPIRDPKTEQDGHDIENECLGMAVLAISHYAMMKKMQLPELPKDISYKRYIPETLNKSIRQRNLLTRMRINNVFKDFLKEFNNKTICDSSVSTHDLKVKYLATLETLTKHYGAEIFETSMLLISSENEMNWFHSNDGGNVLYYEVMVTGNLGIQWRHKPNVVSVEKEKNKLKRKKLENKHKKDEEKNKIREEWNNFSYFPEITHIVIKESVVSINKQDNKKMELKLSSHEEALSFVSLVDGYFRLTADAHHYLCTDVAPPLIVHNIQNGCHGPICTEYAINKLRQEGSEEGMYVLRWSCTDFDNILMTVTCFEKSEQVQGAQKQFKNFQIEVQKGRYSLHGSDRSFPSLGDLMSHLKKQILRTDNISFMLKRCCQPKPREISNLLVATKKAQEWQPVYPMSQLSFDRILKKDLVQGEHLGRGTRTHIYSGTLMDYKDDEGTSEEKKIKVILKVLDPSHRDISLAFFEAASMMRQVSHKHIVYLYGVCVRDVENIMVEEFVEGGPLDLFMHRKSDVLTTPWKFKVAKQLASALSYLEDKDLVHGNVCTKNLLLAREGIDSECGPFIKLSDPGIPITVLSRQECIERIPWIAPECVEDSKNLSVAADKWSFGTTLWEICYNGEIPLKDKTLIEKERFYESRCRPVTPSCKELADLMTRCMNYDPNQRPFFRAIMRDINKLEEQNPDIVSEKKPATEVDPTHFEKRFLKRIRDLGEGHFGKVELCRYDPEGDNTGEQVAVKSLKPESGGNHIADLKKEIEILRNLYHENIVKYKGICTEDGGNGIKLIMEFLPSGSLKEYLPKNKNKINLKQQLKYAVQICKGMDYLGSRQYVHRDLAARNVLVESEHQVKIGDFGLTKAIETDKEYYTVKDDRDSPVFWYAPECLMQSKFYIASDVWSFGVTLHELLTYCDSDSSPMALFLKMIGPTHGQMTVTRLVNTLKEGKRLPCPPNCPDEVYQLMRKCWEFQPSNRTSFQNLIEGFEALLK

Row | Structure (SMILES) | IC50 (JAK1 (h)) | IC50 (FLT3 (h))
1 | CC(=O)N1CCC2(CCC(Nc3nc(Nc4ccc5c(C)n(C)nc5c4)ncc3Cl)CC2)CC1 [Ex. 7, 1-(9-((5-chloro-2-((2,3-dimethyl-2H-indazol-6-yl)amino)pyrimidin-4-yl)amino)-3-azaspiro[5.5]undecan-3-yl)ethanone] | 0.9 nM | 3 nM
2 | Cc1c2ccc(Nc3ncc(Cl)c(NC4CC5CN(C(=O)CC#N)CC5C4)n3)cc2nn1C (stereo not shown) [Ex. 4, 3-(5-((5-chloro-2-((2,3-dimethyl-2H-indazol-6-yl)amino)pyrimidin-4-yl)amino)hexahydrocyclopenta[c]pyrrol-2(1H)-yl)-3-oxopropanenitrile] | 1 nM | 545 nM
